In patent US6472348B1, “Pyridone derivatives and herbicides” (Kumiai Chemical Industry Co., Ltd., priority 1996, dated 2002):

Experiments:
Type in all cases: in vivo
pale smartweed (Po) [1] = assay: Test Example 2: herbicidal effects by upland field soil treatment; settings: 100 g of the active ingredient per 10 ares;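 note: grade of growth control; 5 = at least 90%; 4 = 70 to 90%; 3 = 50 to 70%; 2 = 30 to 50%; 1 = 10 to 30%; 0 = under 10%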
Source text: (§1) (Test on Herbicidal Effects by Upland Field Soil Treatment)

[2] = tested on: common lambsquarters (Ch); assay: as above; settings: 100 g of the active ingredient per 10 ares
Source text: as §1

slender amaranth (Am) [3] = assay: as above; settings: 100 g of the active ingredient per 10 ares
Source text: as §1

barnyardgrass (Ec) [4] = assay: as above; settings: 100 g of the active ingredient per 10 ares
Source text: as §1

Digitaria ciliaris (Di) = assay: as above; settings: 100 g of the active ingredient per 10 ares;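 note: grade of growth control; 5 = at least 90%; 4 = 70 to 90%; 3 = 50 to 70%; 2 = 30 to 50%; 1 = 10 to 30%; 0 = under 10%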
Source text: as §1

rice flatsedge (Ci) [5] = assay: as above; settings: 100 g of the active ingredient per 10 ares
Source text: as §1

bulrush (Sc) = assay: Test Example 1: herbicidal effects by paddy field soil treatment; settings: 100 g of the active ingredient per 10 ares, 21st day after the application, index 0-5 of Table 47;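 note: grade of growth control; 5 = at least 90%; 4 = 70 to 90%; 3 = 50 to 70%; 2 = 30 to 50%; 1 = 10 to 30%; 0 = under 10%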
Method: (§2) (Test on Herbicidal Effects by Paddy Field Soil Treatment)
(§3) In a plastic pot (surface area: 100 cm^2) filled with paddy field soil, barnyardgrass (Ec), monochoria (Mo) and bulrush (Sc) were sown after puddling and leveling, and flooded to a water depth of 3 cm. […] The dose was 100 g of the active ingredient per 10 ares. The plants were then cultured in a green house, and the evaluation of the herbicidal effects was conducted on the 21st day after the application in accordance with the standards as identified in Table 47.

monochoria (Mo) = assay: as above; settings: 100 g of the active ingredient per 10 ares, 21st day after the application, index 0-5 of Table 47;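 note: grade of growth control; 5 = at least 90%; 4 = 70 to 90%; 3 = 50 to 70%; 2 = 30 to 50%; 1 = 10 to 30%; 0 = under 10%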
Method: as §2, §3

barnyardgrass (Ec) [6] = assay: as above; settings: 100 g of the active ingredient per 10 ares, 21st day after the application, index 0-5 of Table 47
Method: as §2, §3

pale smartweed (Po) [7] = assay: Test Example 3: herbicidal effects by upland field foliage treatment; parameters: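 grade of growth control; 5 = at least 90%; 4 = 70 to 90%; 3 = 50 to 70%; 2 = 30 to 50%; 1 = 10 to 30%; 0 = under 10%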; settings: 100 g active ingredient per 10 ares, evaluated 14th day after treatment
Method: (§4) (Test on Herbicidal Effects by Upland Field Foliage Treatment)
(§5) In a plastic pot (surface area: 120 cm^2) filled with sand, barnyardgrass (Ec), Diaitaria ciliaris (Di), pale smartweed (Po), slender amaranth (Am), common lambsquarters (Ch) and rice flatsedge (Ci) were sown and covered with soil and were cultured in a green house for 2 weeks. […] The plants were then cultured in the green house, and the evaluation of the herbicidal effects was conducted on the 14th day after the treatment in accordance with the standards as identified in Table 47. Symbol—represents “not tested”.

Diaitaria ciliaris (Di) = assay: as above; parameters: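 grade of growth control; 5 = at least 90%; 4 = 70 to 90%; 3 = 50 to 70%; 2 = 30 to 50%; 1 = 10 to 30%; 0 = under 10%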; settings: 100 g active ingredient per 10 ares, evaluated 14th day after treatment
Method: as §4, §5

[8] = tested on: common lambsquarters (Ch); assay: as above; parameters: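 grade of growth control; 5 = at least 90%; 4 = 70 to 90%; 3 = 50 to 70%; 2 = 30 to 50%; 1 = 10 to 30%; 0 = under 10%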; settings: 100 g active ingredient per 10 ares, evaluated 14th day after treatment
Method: as §4, §5

slender amaranth (Am) [9] = assay: as above; parameters: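 grade of growth control; 5 = at least 90%; 4 = 70 to 90%; 3 = 50 to 70%; 2 = 30 to 50%; 1 = 10 to 30%; 0 = under 10%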; settings: 100 g active ingredient per 10 ares, evaluated 14th day after treatment
Method: as §4, §5

barnyardgrass (Ec) [10] = assay: as above; parameters: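 grade of growth control; 5 = at least 90%; 4 = 70 to 90%; 3 = 50 to 70%; 2 = 30 to 50%; 1 = 10 to 30%; 0 = under 10%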; settings: 100 g active ingredient per 10 ares, evaluated 14th day after treatment
Method: as §4, §5

rice flatsedge (Ci) [11] = assay: as above; parameters: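 grade of growth control; 5 = at least 90%; 4 = 70 to 90%; 3 = 50 to 70%; 2 = 30 to 50%; 1 = 10 to 30%; 0 = under 10%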; settings: 100 g active ingredient per 10 ares, evaluated 14th day after treatment
Method: as §4, §5

[12] = evaluated on the 21st day after application
[13] = 21st day after the application, index 0-5 of Table 47

Compound	Herbicidal effects Po (pale smartweed (Po) [1]; [12])	Herbicidal effects Ch [2, 12]	Herbicidal effects Am (slender amaranth (Am) [3]; [12])	Herbicidal effects Ec (barnyardgrass (Ec) [4]; [12])	Herbicidal effects Di (Digitaria ciliaris (Di); [12])	Herbicidal effects Ci (rice flatsedge (Ci) [5]; [12])	Herbicidal effects Sc (bulrush (Sc))	Herbicidal effects Mo (monochoria (Mo))	Herbicidal effects Ec (barnyardgrass (Ec) [6])	further results
C#CCN1C(=O)CSc2cc(F)c(-c3ccc(C(F)(F)F)n(C)c3=O)cc21 [Compound 2-21]	5	5	5	5	5	5	5	5	5	–
Cn1c(C(F)(F)F)ccc(-c2cc3c(cc2Cl)OCC(=O)N3)c1=O [Compound 2-27]	5	5	5	5	5	5	5	5	5	–
COCc1cc2c(-c3ccc(C(F)(F)F)n(C)c3=O)c(Cl)cc(Cl)c2o1 [Compound 4-13]	5	5	5	5	5	5	5	5	5	–
CCOCc1cc2c(-c3ccc(C(F)(F)F)n(C)c3=O)c(Cl)cc(Cl)c2o1 [Compound 4-30]	5	5	5	5	5	5	5	5	5	–
CCCOC(C)c1cc2c(-c3ccc(C(F)(F)F)n(C)c3=O)c(F)cc(Cl)c2o1 (stereo not drawn) [Compound 4-37]	5	5	5	5	5	5	–	–	–	Herbicidal effects Po (pale smartweed (Po) [7]): 5; Herbicidal effects Di (Diaitaria ciliaris (Di)): 5; Herbicidal effects Ch [8]: 5; Herbicidal effects Am (slender amaranth (Am) [9]): 5; Herbicidal effects Ec (barnyardgrass (Ec) [10]): 5; Herbicidal effects Ci (rice flatsedge (Ci) [11]): 5
Cn1cc(-c2ccc(Cl)cc2F)c(=O)cc1C(F)(F)F [Compound 6-2]	5	5	5	4	5	5	–	–	–	Herbicidal effects Po (pale smartweed (Po) [7]): 5; Herbicidal effects Di (Diaitaria ciliaris (Di)): 5; Herbicidal effects Ch [8]: 5; Herbicidal effects Am (slender amaranth (Am) [9]): 5; Herbicidal effects Ec (barnyardgrass (Ec) [10]): 4; Herbicidal effects Ci (rice flatsedge (Ci) [11]): 5
Cn1c(C(F)(F)F)ccc(-c2ccc(Cl)cc2)c1=O [Compound No. 1-1]	–	–	–	–	–	–	5	5	5	Herbicidal effects Po (pale smartweed (Po) [1]; [13]): 5; Herbicidal effects Ch [2, 13]: 5; Herbicidal effects Am (slender amaranth (Am) [3]; [13]): 5; Herbicidal effects Ec (barnyardgrass (Ec) [4]; [13]): 5; Herbicidal effects Di (Digitaria ciliaris (Di); [13]): 5; Herbicidal effects Ci (rice flatsedge (Ci) [5]; [13]): 5
C#CCOc1cc(-c2c(C#N)cc(C(F)(F)F)n(C)c2=O)c(F)cc1Cl [Compound No. 11-6, 3-[2-fluoro-4-chloro-5-(2-propionyloxy)phenyl]-4-cyano-1-methyl-6-trifluoromethyl-2(1H)-pyridone]	5	5	5	5	5	5	5	5	5	–
